Like-named read-outs stand apart in the source and are kept apart here.
Key:
[1] = target: DCN1 (DCUND1) protein PONY domain (Homo sapiens (Human), UniProt Q96GG9); experiment: TR-FRET assay, DCN1 binding with FAM-labeled probe
Method in brief: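 Tb-DCN1 PONY domain (E. coli, biotin/streptavidin-Tb); FAM-labelled non-covalent inhibitor probe; TritonX buffer, 200 mM NaCl; 5 nM DCN1 + 20 nM probe or 0.31 nM DCN1 + 900 nM total probe; 0.1% DMSO; TR-FRET read 1, 5, 24 hrs.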

DCN1 protein = DCN1 protein (Homo sapiens (Human), UniProt Q96GG9); experiment: Intact Protein MS Analysis with the RapidFire-TOF System (covalent adduct formation); assay type: binding; details: MS Emax; 400 nM DCN1, 3 hours at room temperature
Method in brief: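 Tag-cleaved human DCN1 (400 nM) expressed in E. coli, in 25 mM Tris-HCl, 200 mM NaCl, 1 mM DTT, was incubated with 11 compound concentrations for 3 h at room temperature and quenched with 0.2% formic acid. Intact-protein Q-TOF MS with deconvolution detected the compound adduct mass.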

[2] = test system: Cullin-3 (CUL3) neddylation; experiment: AlphaLISA assay for Cullin-3 (CUL3) neddylation in TF 1 cells; assay type: cell-based; details: Homo sapiens, TF-1, 3 h, 3 hours treatment
Method in brief: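 Neddylated CUL3 was quantified by AlphaLISA in lysates of TF 1 cells exposed for 3 h to test compound in IMDM without supplements. Percent inhibition set between vehicle and 1 μM DI-1548 positive control; IC50 derived by Hill-equation fitting of dose-response curves.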

[3] = 24 hr after treatment with compound, read-out: TR FRET IC50 24 hr
[4] = read-out: TR FRET IC50 1 hr, 1 hr after treatment with compound
[5] = TR FRET IC50 1 hr (nM), 1 hr after treatment with compound

Sequence of DCN1 (DCUND1) protein PONY domain (Q96GG9 60-248): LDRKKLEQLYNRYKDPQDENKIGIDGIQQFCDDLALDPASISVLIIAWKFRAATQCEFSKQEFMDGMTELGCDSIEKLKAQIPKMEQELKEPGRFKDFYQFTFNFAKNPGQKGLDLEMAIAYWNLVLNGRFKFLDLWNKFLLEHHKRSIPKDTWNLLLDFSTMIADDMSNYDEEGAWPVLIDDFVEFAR
Sequence of DCN1 protein (Q96GG9 whole entry): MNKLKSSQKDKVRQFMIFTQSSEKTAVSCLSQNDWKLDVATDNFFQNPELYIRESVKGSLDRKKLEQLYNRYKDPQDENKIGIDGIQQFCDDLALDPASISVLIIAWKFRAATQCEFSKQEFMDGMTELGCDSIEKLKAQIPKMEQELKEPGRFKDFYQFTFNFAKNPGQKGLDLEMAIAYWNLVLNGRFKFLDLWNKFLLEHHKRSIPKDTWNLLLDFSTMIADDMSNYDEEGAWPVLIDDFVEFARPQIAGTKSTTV

Row | SMILES | IC50 [1, 3] | IC50 [1, 4] | % Adduct Formation (DCN1 protein) | IC50 [2] | IC50 [1, 5]
1 | CCN1C(=O)[C@@H](NC(=O)c2cccc(C(F)(F)F)c2)[C@@H](c2ccc(F)cc2)c2c(C(=O)N(CC#N)CCN(C)C3COC3)nn(-c3ccccc3)c21 (racemic) [Compound I-321] | ≤ 200 nM | ≤ 200 nM | +++ (MS Emax % adduct formation greater than 80.0 and less than or equal to 100.0) | ≤ 100 nM | –
2 | CCN1C(=O)[C@@H](NC(=O)c2cccc(C(F)(F)F)c2)[C@@H](c2ccc(F)cc2)c2c(C(=O)N(C)[C@@H](C#N)CCO)nn(-c3ccccc3)c21 (relative stereo) [Compound I-290, (4S,5S)—N-[(1R*)-1-cyano-3-hydroxypropyl]-7-ethyl-4-(4-fluorophenyl)-N-methyl-6-oxo-1-phenyl-5-[3-(trifluoromethyl)benzamido]-4H,5H-pyrazolo[3,4-b]pyridine-3-carboxamide] | ≤ 200 nM | – | + (MS Emax % adduct formation greater than or equal to 0.0 and less than or equal to 30.0) | ≤ 100 nM | ≤ 200 nM
3 | CCN1C(=O)[C@@H](NC(=O)c2cccc(C(F)(F)F)c2)[C@@H](c2ccc(F)cc2)c2c(C(=O)N(C)[C@H](C#N)CCO)nn(-c3ccccc3)c21 (relative stereo) [Compound I-301, (4S,5S)—N-[(1S*)-1-cyano-3-hydroxypropyl]-7-ethyl-4-(4-fluorophenyl)-N-methyl-6-oxo-1-phenyl-5-[3-(trifluoromethyl)benzamido]-4H,5H-pyrazolo[3,4-b]pyridine-3-carboxamide] | ≤ 200 nM | – | ++ (MS Emax % adduct formation greater than 30.0 and less than or equal to 80.0) | ≤ 100 nM | ≤ 200 nM
4 | CCN1C(=O)[C@@H](NC(=O)c2cccc(C(F)(F)F)c2)[C@@H](c2ccc(F)cc2)c2c(C(=O)N(C)[C@H](C)C#N)nn(-c3ccccc3)c21 (single isomer, unassigned) [Compound I-289, (4S,5S)—N—((R*)-1-cyanoethyl)-7-ethyl-4-(4-fluorophenyl)-N-methyl-6-oxo-1-phenyl-5-(3-(trifluoromethyl)benzamido)-4,5,6,7-tetrahydro-1H-pyrazolo[3,4-b]pyridine-3-carboxamide] | ≤ 200 nM | – | +++ (MS Emax % adduct formation greater than 80.0 and less than or equal to 100.0) | ≤ 100 nM | ≤ 200 nM
5 | CCN1C(=O)[C@@H](NC(=O)c2cccc(C(F)(F)F)c2)[C@@H](c2ccc(F)cc2)c2c(C(=O)N(C)[C@@H](C#N)C3COC3)nn(-c3ccccc3)c21 (single isomer, unassigned) [Compound I-291] | ≤ 200 nM | ≤ 200 nM | +++ (MS Emax % adduct formation greater than 80.0 and less than or equal to 100.0) | ≤ 100 nM | –
6 | CCN1C(=O)[C@H](NC(=O)c2cccc(C(F)(F)F)c2)[C@H](c2ccc(F)cc2)c2c(C(=O)N3CCOCC3C#N)nn(-c3ccccc3)c21 (single isomer, unassigned) [Compound I-296] | ≤ 200 nM | – | ++ (MS Emax % adduct formation greater than 30.0 and less than or equal to 80.0) | ≤ 100 nM | 1000 to 3000 nM
7 | CCN1C(=O)[C@@H](NC(=O)c2cccc(C(F)(F)F)c2)[C@@H](c2ccc(F)cc2)c2c(C(=O)N(C)[C@@H](C)C#N)nn(-c3ccccc3)c21 (single isomer, unassigned) [Compound I-300, (4S,5S)—N—((S*)-1-cyanoethyl)-7-ethyl-4-(4-fluorophenyl)-N-methyl-6-oxo-1-phenyl-5-(3-(trifluoromethyl)benzamido)-4,5,6,7-tetrahydro-1H-pyrazolo[3,4-b]pyridine-3-carboxamide] | ≤ 200 nM | – | +++ (MS Emax % adduct formation greater than 80.0 and less than or equal to 100.0) | ≤ 100 nM | ≤ 200 nM
8 | CCN1C(=O)[C@@H](NC(=O)c2cccc(C(F)(F)F)c2)[C@@H](c2ccc(F)cc2)c2c(C(=O)N(C)[C@@H](C#N)CCN(C)C3COC3)nn(-c3ccccc3)c21 (single isomer, unassigned) [Compound I-311] | ≤ 200 nM | ≤ 200 nM | + (MS Emax % adduct formation greater than or equal to 0.0 and less than or equal to 30.0) | ≤ 100 nM | –
9 | CCN(CC#N)C(=O)c1nn(-c2ccccc2)c2c1[C@H](c1ccc(F)cc1)[C@H](NC(=O)c1cccc(C(F)(F)F)c1)C(=O)N2CC (stereo in doubt) [Compound I-283] | ≤ 200 nM | ≤ 200 nM | +++ (MS Emax % adduct formation greater than 80.0 and less than or equal to 100.0) | ≤ 100 nM | –
10 | CCN1C(=O)[C@@H](NC(=O)c2cccc(C(F)(F)F)c2)[C@@H](c2ccc(F)cc2)c2c(C(=O)N(CC#N)C3CC3)nn(-c3ccccc3)c21 (stereo in doubt) [Compound I-284] | ≤ 200 nM | ≤ 200 nM | +++ (MS Emax % adduct formation greater than 80.0 and less than or equal to 100.0) | ≤ 100 nM | –
11 | CCN1C(=O)[C@@H](NC(=O)c2cccc(C(F)(F)F)c2)[C@@H](c2ccc(F)cc2)c2c(C(=O)N(CC#N)CCO)nn(-c3ccccc3)c21 (stereo in doubt) [Compound I-286] | ≤ 200 nM | ≤ 200 nM | + (MS Emax % adduct formation greater than or equal to 0.0 and less than or equal to 30.0) | ≤ 100 nM | –
12 | CCN1C(=O)[C@@H](NC(=O)c2cccc(C(F)(F)F)c2)[C@@H](c2ccc(F)cc2)c2c(C(=O)N(CC#N)CC(=O)OC)nn(-c3ccccc3)c21 (stereo in doubt) [Compound I-287] | ≤ 200 nM | ≤ 200 nM | +++ (MS Emax % adduct formation greater than 80.0 and less than or equal to 100.0) | ≤ 100 nM | –
13 | CCN1C(=O)[C@@H](NC(=O)c2cccc(C(F)(F)F)c2)[C@@H](c2ccc(F)cc2)c2c(C(=O)N(CC#N)CCC(=O)OC)nn(-c3ccccc3)c21 (stereo in doubt) [Compound I-288] | ≤ 200 nM | ≤ 200 nM | +++ (MS Emax % adduct formation greater than 80.0 and less than or equal to 100.0) | ≤ 100 nM | –
14 | CCN1C(=O)[C@H](NC(=O)c2cccc(C(F)(F)F)c2)[C@H](c2ccc(F)cc2)c2c(C(=O)N3CCC[C@H]3C#N)nn(-c3cccc(OCCCN4CC5(COC5)C4)c3)c21 (stereo in doubt) [Compound I-293] | ≤ 200 nM | – | +++ (MS Emax % adduct formation greater than 80.0 and less than or equal to 100.0) | ≤ 100 nM | ≤ 200 nM
15 | C=C(CN1CC2(COC2)C1)C(=O)NCc1nn(-c2ccccc2)c2c1[C@H](c1ccc(F)cc1)[C@H](NC(=O)c1cccc(C(F)(F)F)c1)C(=O)N2CC [Compound I-138] | ≤ 200 nM | ≤ 200 nM | +++ (MS Emax % adduct formation greater than 80.0 and less than or equal to 100.0) | ≤ 100 nM | –
16 | C=C(CN1CC2(COC2)C1)C(=O)NCc1nn(-c2ccccc2)c2c1[C@H](c1ccc(F)cc1)[C@@H](NC(=O)c1cccc(C(F)(F)F)c1)C(=O)N2CC [Compound I-149] | ≤ 200 nM | ≤ 200 nM | +++ (MS Emax % adduct formation greater than 80.0 and less than or equal to 100.0) | ≤ 100 nM | –
17 | CCN1C(=O)[C@@H](NC(=O)c2cccc(C(F)(F)F)c2)[C@@H](c2ccc(F)cc2)c2c(C(=O)N3CC[C@H]3C#N)nn(-c3ccccc3)c21 [Compound I-275] | ≤ 200 nM | ≤ 200 nM | ++ (MS Emax % adduct formation greater than 30.0 and less than or equal to 80.0) | ≤ 100 nM | –
18 | CCN1C(=O)[C@@H](NC(=O)c2cccc(C(F)(F)F)c2)[C@@H](c2ccc(F)cc2)c2c(C(=O)N3CCOC[C@H]3C#N)nn(-c3ccccc3)c21 [Compound I-276] | ≤ 200 nM | – | +++ (MS Emax % adduct formation greater than 80.0 and less than or equal to 100.0) | ≤ 100 nM | 200 to 1000 nM
19 | CCN1C(=O)[C@@H](NC(=O)c2cccc(C(F)(F)F)c2)[C@@H](c2ccc(F)cc2)c2c([C@@H](CF)NC#N)nn(-c3ccccc3)c21 [Compound I-279] | ≤ 200 nM | ≤ 200 nM | +++ (MS Emax % adduct formation greater than 80.0 and less than or equal to 100.0) | ≤ 100 nM | –
20 | CCN1C(=O)[C@@H](NC(=O)c2cccc(C(F)(F)F)c2)[C@@H](c2ccc(F)cc2)c2c(C(=O)N3CCNC[C@@H]3C#N)nn(-c3ccccc3)c21 [Compound I-280] | ≤ 200 nM | ≤ 200 nM | +++ (MS Emax % adduct formation greater than 80.0 and less than or equal to 100.0) | ≤ 100 nM | –
21 | CCN1C(=O)[C@@H](NC(=O)c2cccc(C(F)(F)F)c2)[C@H](c2ccc(F)cc2)c2c(CC(=O)NCC#N)nn(-c3ccccc3)c21 [Compound I-298, N-((4R,5S)-3-(2-((cyanomethyl)amino)-2-oxoethyl)-7-ethyl-4-(4-fluorophenyl)-6-oxo-1-phenyl-4,5,6,7-tetrahydro-1H-pyrazolo[3,4-b]pyridin-5-yl)-3-(trifluoromethyl)benzamide] | 200 to 1000 nM | – | + (MS Emax % adduct formation greater than or equal to 0.0 and less than or equal to 30.0) | 100 to 1000 nM | 200 to 1000 nM

From patent US20250163057A1, “DCN-1 MODULATING COMPOUNDS AND METHODS OF USE THEREOF” (Cellarity, Inc., priority 2023, published 2025)
